Source: EP0394314B2, “MULTIPLE STEP ENTRAPMENT/LOADING PROCEDURE FOR PREPARING […]-[…]” (VESTAR, INC., priority 1987, dated 1989)
Counter-ions that a name gives are not always drawn.

What was measured:
[1] = Maximum tolerated dose of a single intravenous dose; settings: mouse, in vivo, CD2F1 mice, vesicles normalized to the hydrochloride, read-out: maximum tolerated dose (MTD, non-lethal)
Protocol: This compares to an MTD of about 40 mg/kg (normalized to the hydrochloride) for doxorubicin vesicles prepared as described in Example III. In contrast, the MTD for doxorubicin vesicles, when prepared as described in Example III with the exception that citric acid was substituted for lactobionic acid, was only about 10 mg/kg, less than the MTD for the free drug.

[2] = tested on: White blood cell (w.b.c.) counts; assay: White blood cell counts after doxorubicin treatment; format: in vivo, CD2F1 mice; settings: doxorubicin dose 40 mg/kg (for the equivalent hydrochloride); four days post therapy
Protocol: White blood cell (w.b.c.) counts were performed on CD2F1 mice receiving doxorubicin doses of 40 mg/kg (for the equivalent hydrochloride). Mice receiving free drug experienced severe depression in w.b.c. counts: at four days post therapy, counts were only 8.5% of pretherapy values. In contrast, mice treated with doxorubicin vesicles prepared in accordance with this invention (Example III) at the same doxorubicin dosage experienced only moderate suppression in w.b.c. counts: at four days post therapy, counts were 75% of pretherapy values.

[3] = Toxicity of doxorubicin vesicles versus free drug, intravenous tests in mice; format: in vivo; settings: 20 mg/kg or equivalent dose
Description: In nearly all instances of vesicle-entrapped doxorubicin reported in the literature, the loaded vesicles are less toxic than the free drug.
Doxorubicin vesicles can also be prepared with citric acid.

## COc1cccc2c1C(=O)c1c(O)c3c(c(O)c1C2=O)C[C@@](O)(C(=O)CO)C[C@@H]3O[C@H]1C[C@H](N)[C@H](O)[C@H](C)O1 [doxorubicin hydrochloride]
[1]
  MTD: ~25 mg/kg
[2]
  w.b.c. counts, % of pretherapy values: 8.5%
[3]
  tolerance of dose: tolerated
